Like-named read-outs stand apart in the source and are kept apart here.
Legend:
[1] = system: carrageenan induced edema in mouse foot pads; test: Anti-inflammatory screen (carrageenan induced foot edema); assay type: in vivo, mice; settings: for Anti-inflammatory Screen: mice; for inhibition of the carrageenan induced edema in mouse foot pads: text summary of Table II
Method: CF1 male mice (about 30 g) were administered test drugs at 10 mg/kg in 0.05% polysorbate .80-water intraperitoneally 3 hr and 30 min prior to 0.05 ml of 2% carrageenan in 0.9% saline injected into the plantar surface of the right hind foot. Saline injected into the left hind foot served as a base line. After 3 hr, both feet were excised at the tibiotarsal (ankle) joint according to the modified (Roszkowski et al., J. Pharm. Exp. Ther., 179, 114 1971) method of Winter, resulting in an 87 mg net increase in the weight of the control animals' feet.

CF1 male mice = test: Writhing reflex (acetic acid); assay type: in vivo; settings: for Writhing Reflex: mice; for inhibition of the writhing reflex: text summary of Table II
Method: CF1 male mice were administered test drugs at 20 mg/kg intraperitoneally 20 min (see Hendershat et al., J. Pharmacol Exp. Ther. 125, 237 1959) prior to the administration of 0.5 ml of 0.6% acetic acid (Vingar et al., European J. PHarmacol, 37, 23 1976). After 5 min the number of stretches, characterized by repeated contractures of the abdominal musculature accompanied by extension of the hind limbs, was counted for the next 10 min. The control mice had 78 stretch reflexes per 10 min.

Sprague Dawley rats = test: Red and white blood cell counts after 3 weeks dosing; assay type: in vivo; settings: dosing for three weeks intraperitoneally, rats
Excerpt: Hematocrits were also obtained.

Acid phosphatase [2] = test: Lysosomal free acid phosphatase activity, liver homogenate; assay type: biochemical, rats; settings: 5 μmoles, in vitro; 20 min
Method: (§1) Lysosomal enzymatic assays - Sprague Dawley rats (about 160 g) were sacrificed, the liver excised, and a 10% homogenate (4x) in 0.25 M sucrose and 0.001 M (ethylenedinitrilo) tetra acetic acid, ph 7.2 was prepared.
(§2) Acid phosphatase activity (Gianetto et al., Biochem J., 59, 433 1955) was carried out by incubating with 0.1 Mβ-glycerol phosphate in 0.1 M acetate, pH 5.0 with 5 μmoles of test drugs in 1% carboxymethylcellulose (CMC) for 20 min with liver homogenate and 60 min with resuspended PMNs. Lysosome enzymes were released by 0.02% alkyl phenoxy polyethoxy ethanol-100 to obtain the total enzymatic activity. The reaction was stopped with 10% trichloroacetic acid and the solution centrifuged. Aliquots of the supernatant were assayed for inorganic phophate content by the method of Chen et al., Anal Chem., 28, 1756 (1956). Percent free acid phosphatase was calculated. Cathepsin activity was determined in an analagous manner except the substrate used was 2% azocasein (Schleuning et al., Methods in Enzymology, XLV, 330 1976) in 0.1 M acetate buffer pH 5.0. The supernatant was assayed for acid soluble peptide fragments at 366 nm. Percent free cathepsin activity was calculated.

Cathepsin [3] = test: Lysosomal free cathepsin activity, liver homogenate; assay type: biochemical, rats; settings: 5 μmoles; for Liver % Free Cathepsin Activity, pH5: in vitro, 20 min
Method: as §1, §2

Acid phosphatase [4] = test: Lysosomal free acid phosphatase activity, PMNs; assay type: cell-based; settings: 5 μmoles; for PMNs % Free Acid Phosphatase Activity, pH5: in vitro, 60 min
Method: (§3) Polymorphonuclear neutrophils (PMNs) were collected from the peritoneal cavity four hr after the injection of 35 ml of 0.5% oyster glycogen in isotonic saline (Orange et al., J. Exp. Med., 127, 767 1968). The PMNs were centrifuged down at 800 g for 20 min, washed, and resuspended in minumen essential medium (MEM) with 10% fetal calf serum pH 7.4.
as §2

Cathepsin [5] = test: Lysosomal free cathepsin activity, PMNs; assay type: cell-based; settings: 5 μmoles; for PMNs % Free Cathespin Activity, pH5: in vitro, 60 min
Method: as §3, §2

cAMP levels in PMNs = test: Cyclic-3',5'-adenosine monophosphate levels (cAMP) in PMNs; assay type: cell-based; settings: 1 h; for activation at 5 µmol: read-out: increase of cyclic adenosine monophosphate levels in PMNs
Method: as §3
Isolated PMNs were incubated with test drugs at 5μ moles for 1 hr at 37° C. in MEM at pH 7.4. The reaction was stopped with 6% trichloroacetic acid. The cyclic-3',5'-adenosine monophosphate levels were determined by the radioimmunoassay of Gilman, Proc. Natl. Acad. Sci. (USA), 67, 305 (1970), using 3H(G)-cyclic-3',5'-adenosine monophosphate (39.8 Cu/m mol). Results were calculated in p mole/10^7 PMNs cells.

[6] = molecular target: T1, prostaglandin synthetase from beef seminal vesicle (Bos taurus, UniProt O62664); test: Prostaglandin synthetase activity; assay type: biochemical; settings: for activity at 1 µM / inhibition at 1 µM: 10^-6 M
T1 construct: purchased; host or cells: beef seminal vesicle
T1 sequence (O62664 25-600): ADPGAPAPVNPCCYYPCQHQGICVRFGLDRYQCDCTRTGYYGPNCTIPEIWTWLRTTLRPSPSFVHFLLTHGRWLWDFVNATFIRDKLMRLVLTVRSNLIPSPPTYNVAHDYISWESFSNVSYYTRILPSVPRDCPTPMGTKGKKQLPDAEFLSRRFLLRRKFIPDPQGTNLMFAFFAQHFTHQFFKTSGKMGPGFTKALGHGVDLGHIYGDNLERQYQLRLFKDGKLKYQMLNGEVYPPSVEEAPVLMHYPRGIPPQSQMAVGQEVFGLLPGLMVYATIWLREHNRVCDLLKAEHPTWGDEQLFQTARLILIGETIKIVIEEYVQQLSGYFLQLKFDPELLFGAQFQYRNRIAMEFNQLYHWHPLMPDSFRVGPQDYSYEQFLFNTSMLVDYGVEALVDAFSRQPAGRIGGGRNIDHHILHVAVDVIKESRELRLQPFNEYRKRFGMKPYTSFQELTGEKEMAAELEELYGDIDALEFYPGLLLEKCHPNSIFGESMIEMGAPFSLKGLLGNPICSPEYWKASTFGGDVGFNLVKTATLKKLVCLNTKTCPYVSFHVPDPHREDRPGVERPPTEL
Method: After 1 hr at 37° C. the reaction was stopped with 1 N HCl and extracted with ethyl ether and evaporated. […] The plates were dried and developed in iodine vapor and with the use of prostaglandin standards the appropriate areas were scraped and counted for ^3 H content. Indometacin was used as a standard at 10^-4 M concentration. Test drugs were used at 10^-6 M.

liver mitochondria [7] = test: Oxidative phosphorylation, succinate as substrate; assay type: biochemical, rats; settings: 5 μmoles; for Oxidative Phosphorylation Succinate State 3: ADP stimulated respiration; for Oxidative Phosphorylation Succinate State 4: basal respiration
Method: (§4) Basal and adenosine diphosphate stimulated respiration on 10% liver homogenates was measured using succinate or αketoglutarate as substrate. See Glatt, et al., supra. The reaction vessel contained sucrose 55μ moles, KCl 22μ moles, K2 HPO4 22μ moles, test compounds at 5μ moles in 1% CMC and sodium succinate 90μ moles or αketoglutarate 60μ moles in a total volume of 1.8 ml. […] The rate of respiration was calculated at μl of O2 consumed/hr/mg wet weight of liver.

liver mitochondria [8] = test: Oxidative phosphorylation, α-ketoglutarate as substrate; assay type: biochemical, rats; settings: 5 μmoles; for Oxidative Phosphorylation α Ketoglutarate State 3: ADP stimulated respiration; for Oxidative Phosphorylation α Ketoglutarate State 4: basal respiration
Method: as §4

Male Sprague Dawley rats = test: Chronic adjuvant arthritic screen; assay type: in vivo; settings: indomethacin tested at 10 mg/kg, rats
Method: Male Sprague Dawley rats (about 160 g) were injected at the base of the tail with 0.2 ml of solution of killed and dried Mycobacterium butyricum and digitonin in mineral oil (see Waksman et al., J. Immunol., 85, 403 1960). Test drugs were administered intraperitoneally commencing on day 3 through day 20 at 2.5 mg/kg/day. Animals were sacrificed on day 21, and the feet were excised and weighed.

[9] = Hydrolytic, air and moisture stability
in vivo = settings: mouse
[10] = pH 7.4, 5 μmoles, in vitro, read-out: PMNs cAMP Level
[11] = 1 h, read-out: Prostaglandin Synthesis
[12] = indomethacin tested at 10 mg/kg
[13] = pH 7.4, read-out: PMNs cAMP Level
[14] = read-out: inhibition of prostaglandin synthesis

| Compound | Anti-inflammatory Screen ([1]; 10 mg/kg × 2 intraperitoneally) | inhibition of the carrageenan induced edema in mouse foot pads [1] | Writhing Reflex (CF1 male mice; 20 mg/kg intraperitoneally) | inhibition of the writhing reflex (CF1 male mice) | alteration of the red blood or white blood cell count/cu mm (Sprague Dawley rats) | Liver % Free Acid Phosphatase Activity, pH5 (Acid phosphatase [2]) | Liver % Free Cathepsin Activity, pH5 (Cathepsin [3]) | PMNs % Free Acid Phosphatase Activity, pH5 (Acid phosphatase [4]) | PMNs % Free Cathespin Activity, pH5 (Cathepsin [5]) | activity at 5 µmol (cAMP levels in PMNs; [10]) | activity at 1 µM [6, 11] | Oxidative Phosphorylation Succinate State 3 (liver mitochondria [7]) | Oxidative Phosphorylation Succinate State 4 (liver mitochondria [7]) | Oxidative Phosphorylation α Ketoglutarate State 3 (liver mitochondria [8]) | Oxidative Phosphorylation α Ketoglutarate State 4 (liver mitochondria [8]) | activity at 5 µmol (cAMP levels in PMNs; [13]) | inhibition at 1 µM [6, 14] | inhibition of free acid phosphatase activity in PMNs (Acid phosphatase [4]) | inhibition of PMN cathepsin activity (Cathepsin [5]) | LD50 (in vivo) | also measured |
| --- | --- | --- | --- | --- | --- | --- | --- | --- | --- | --- | --- | --- | --- | --- | --- | --- | --- | --- | --- | --- | --- |
| [BH3-][NH+]1CCOCC1 [Compound II, O(CH2 CH2)2 NH.BH3] | 55 % Control | at least 40% | 15 % Control | 80% | no alteration | 75 ± 8 % Control | 107 ± 6 % Control | 79 ± 5 % Control | 93 ± 7 % Control | 107% | 100 ± 5% | 66 ± 10 % Control | 115 ± 15 % Control | 50 ± 11 % Control | 97 ± 29 % Control |  |  |  |  |  |  |
| COc1ccc2c(c1)c(CC(=O)O)c(C)n2C(=O)c1ccc(Cl)cc1 [Indomethacin, reference compound] |  |  |  |  |  | 86 ± 4 % Control | 67 ± 6 % Control | 100 ± 2 % Control | 100 ± 1 % Control |  |  |  |  |  |  | 80% | 24% |  |  |  | Anti-inflammatory Screen [1, 12]: 22 % Control; Writhing Reflex (CF1 male mice; [12]): 43 % Control; Anti-Arthritic Screen (Male Sprague Dawley rats): 27 % Control; inhibition at 100 µM ([6]; 10^-4 M, read-out: inhibition of prostaglandin synthesis): 36%; activity at 100 µM ([6]; 1 h, 10^-4 M (indomethacin), read-out: Prostaglandin Synthesis): 64 ± 2% |
| C[N+](C)(C)[BH2-]C(=O)O [VIII, trimethylamine-carboxyborane] | 79 % Control |  | 29 % Control | 70% |  | 82 ± 5 % Control | 56 ± 6 % Control | 50 ± 3 % Control | 14 ± 4 % Control | 99% | 93 ± 3% | 63 ± 4 % Control | 122 ± 14 % Control | 70 ± 20 % Control | 127 ± 22 % Control |  |  | 50% | at least 82% |  | uncoupling with α-ketoglutarate as substrate (liver mitochondria [8]): uncoupling; stability to air and water/moisture [9]: stable in air and H2 O |
| C[N+]1([BH2-]C#N)CCOCC1 [XIV, O(CH2 CH2)2 N(CH3).BH2 CN] |  |  |  |  | no alteration | 68 ± 7 % Control | 13 ± 5 % Control | 50 ± 3 % Control | 37 ± 5 % Control |  | 38 ± 3% | 36 ± 5 % Control | 62 ± 10 % Control | 51 ± 16 % Control | 140 ± 47 % Control | 165% |  | 50% |  | 23 mg/kg | Anti-inflammatory Screen ([1]; 1/3 dose (of 10 mg/kg × 2)): 91 % Control; Writhing Reflex (CF1 male mice; 1/3 dose (of 20 mg/kg)): 78 % Control; inhibition of free proteolytic cathepsin activity of liver (Cathepsin [3]): at least 75%; activation at 5 µmol (cAMP levels in PMNs): 65%; both states 3 and 4 respiration with succinate (liver mitochondria [7]): inhibited |
| C[N+](C)([BH2-]C#N)CCC#N [XIX, 3-Dimethylaminopropionitrile-cyanoborane] | 74 % Control |  | 89 % Control |  | no alteration | 66 ± 4 % Control | 15 ± 3 % Control | 100 ± 9 % Control | 17 ± 5 % Control |  | 53 ± 7% | 24 ± 7 % Control | 43 ± 16 % Control | 33 ± 8 % Control | 105 ± 33 % Control | 199% | > 30% |  | at least 82% | 140 mg/kg | inhibition of free proteolytic cathepsin activity of liver (Cathepsin [3]): at least 75%; activation at 5 µmol (cAMP levels in PMNs): 99%; both states 3 and 4 respiration with succinate (liver mitochondria [7]): inhibited |
| N#C[BH2-][NH3+] [XVII, ammonia-cyanoborane] | 51 % Control | at least 40% | 50 % Control |  |  | 75 ± 5 % Control | 48 ± 6 % Control | 100 ± 2 % Control | 26 ± 4 % Control |  | 55 ± 6% | 60 ± 11 % Control | 112 ± 7 % Control | 40 ± 9 % Control | 149 ± 27 % Control | 93% | > 30% |  |  | 30 mg/kg | loss of hydrogen (hydrolytic stability) ([9]; concentrated HCl, 70 hr, room temperature): 8% |

Source: US4368194A, “Pharmacologically active amine boranes” (The United States of America as represented by the …, priority 1981, dated 1983)
